Experimental data from ChEMBL document CHEMBL1201862, “PubChem BioAssay data set” (2004).
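Dose response: 5 concentrations. Exposure: 48 h. Format: 96-well plates. Endpoint: linear interpolation; highest concentration if not reached. GI50: concentration for 50% inhibition of growth.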 The source made the active and inactive calls. Rule as the data show it: active = GI50 up to about 1.1 µM and inactive = higher.

Legend:
Test in all cases: NCI tumour cell line growth inhibition, 48 h
UACC-62 = tested on: UACC-62
DU-145 = tested on: DU-145
SNB-19 = tested on: SNB-19
HCT-116 = tested on: HCT-116
HCT-15 = tested on: HCT-15
BT-549 = tested on: BT-549
786-0 = tested on: 786-0
MDA-MB-435 = tested on: MDA-MB-435
SK-OV-3 = tested on: SK-OV-3
K562 = tested on: K562
MDA-MB-231 = tested on: MDA-MB-231
OVCAR-4 = tested on: OVCAR-4
SN12C = tested on: SN12C
SNB-75 = tested on: SNB-75
Hs-578T = tested on: Hs-578T
MOLT-4 = tested on: MOLT-4
NCI-H23 = tested on: NCI-H23
A498 = tested on: A498
ACHN = tested on: ACHN
OVCAR-3 = tested on: OVCAR-3
SF-268 = tested on: SF-268
EKVX = tested on: EKVX
SF-539 = tested on: SF-539
SK-MEL-2 = tested on: SK-MEL-2
KM12 = tested on: KM12
NCI-H522 = tested on: NCI-H522
COLO 205 = tested on: COLO 205
LOX IMVI = tested on: LOX IMVI
SR = tested on: SR
IGROV-1 = tested on: IGROV-1
T47D = tested on: T47D
SK-MEL-5 = tested on: SK-MEL-5
TK-10 = tested on: TK-10
UACC-257 = tested on: UACC-257
OVCAR-8 = tested on: OVCAR-8
RXF 393 = tested on: RXF 393
A549 = tested on: A549
Malme-3M = tested on: Malme-3M
U-251 = tested on: U-251
NCI-H460 = tested on: NCI-H460
NCI-H226 = tested on: NCI-H226
SK-MEL-28 = tested on: SK-MEL-28
HOP-92 = tested on: HOP-92
OVCAR-5 = tested on: OVCAR-5
RPMI-8226 = tested on: RPMI-8226
CAKI-1 = tested on: CAKI-1
PC-3 = tested on: PC-3
HOP-62 = tested on: HOP-62
CCRF-CEM = tested on: CCRF-CEM
M14 = tested on: M14
SW-620 = tested on: SW-620
HT-29 = tested on: HT-29
SF-295 = tested on: SF-295
NCI/ADR-RES = tested on: NCI/ADR-RES
MCF7 = tested on: MCF7
MDA-N = tested on: MDA-N
UO-31 = tested on: UO-31
HL-60 = tested on: HL-60
HCC 2998 = tested on: HCC 2998

For `C[Si](C)(c1ccc(C(=O)O)cc1)c1ccc(C(=O)O)cc1`, the GI50 (UACC-62) was > 100 µM (inactive), the GI50 (DU-145) was > 100 µM (inactive) and the GI50 (SNB-19) was > 100 µM (inactive). The GI50 (HCT-116) was > 100 µM (inactive), the GI50 (HCT-15) was over 100 µM and the GI50 (BT-549) was > 100 µM (inactive). For the same molecule, the GI50 (786-0) was > 100 µM (inactive), the GI50 (MDA-MB-435) was > 100 µM (inactive) and the GI50 (SK-OV-3) was > 100 µM (inactive). For the same molecule, the GI50 (K562) was > 100 µM (inactive), the GI50 (MDA-MB-231) was > 100 µM (inactive) and the GI50 (OVCAR-4) was > 100 µM (inactive). The GI50 (SN12C) was > 100 µM (inactive), the GI50 (SNB-75) was > 100 µM (inactive) and the GI50 (Hs-578T) was > 100 µM (inactive). For the same molecule, the GI50 (MOLT-4) was > 100 µM (inactive), the GI50 (NCI-H23) was > 100 µM (inactive) and the GI50 (A498) was > 100 µM (inactive). The GI50 (ACHN) was > 100 µM (inactive), the GI50 (OVCAR-3) was > 100 µM (inactive) and the GI50 (SF-268) was > 100 µM (inactive). The GI50 (EKVX) was > 100 µM (inactive), the GI50 (SF-539) was > 100 µM (inactive) and the GI50 (SK-MEL-2) was > 100 µM (inactive). The GI50 (KM12) was > 100 µM (inactive), the GI50 (NCI-H522) was > 100 µM (inactive) and the GI50 (COLO 205) was > 100 µM (inactive). For the same molecule, the GI50 (LOX IMVI) was > 100 µM (inactive), the GI50 (SR) was > 100 µM (inactive) and the GI50 (IGROV-1) was > 100 µM (inactive). The GI50 (T47D) was > 100 µM (inactive), the GI50 (SK-MEL-5) was > 100 µM (inactive) and the GI50 (TK-10) was > 100 µM (inactive). The GI50 (UACC-257) was > 100 µM (inactive), the GI50 (OVCAR-8) was > 100 µM (inactive) and the GI50 (RXF 393) was > 100 µM (inactive). For the same molecule, the GI50 (A549) was > 100 µM (inactive), the GI50 (Malme-3M) was > 100 µM (inactive) and the GI50 (U-251) was > 100 µM (inactive). The GI50 (NCI-H460) was > 100 µM (inactive), the GI50 (NCI-H226) was > 100 µM (inactive) and the GI50 (SK-MEL-28) was > 100 µM (inactive). For the same molecule, the GI50 (HOP-92) was > 100 µM (inactive), the GI50 (OVCAR-5) was > 100 µM (inactive) and the GI50 (RPMI-8226) was > 100 µM (inactive). For the same molecule, the GI50 (CAKI-1) was > 100 µM (inactive), the GI50 (PC-3) was > 100 µM (inactive) and the GI50 (HOP-62) was > 100 µM (inactive). For the same molecule, the GI50 (CCRF-CEM) was > 100 µM (inactive), the GI50 (M14) was > 100 µM (inactive) and the GI50 (SW-620) was > 100 µM (inactive). For the same molecule, the GI50 (HT-29) was > 100 µM (inactive), the GI50 (SF-295) was > 100 µM (inactive) and the GI50 (NCI/ADR-RES) was > 100 µM (inactive). For the same molecule, the GI50 (MCF7) was > 100 µM (inactive) and the GI50 (MDA-N) was > 100 µM (inactive).

For `c1ccc(CN2CCC(=NN3CCCCC3)CC2)cc1`, the GI50 (UACC-62) was > 100 µM (inactive), the GI50 (DU-145) was > 100 µM (inactive) and the GI50 (SNB-19) was > 100 µM (inactive). The GI50 (HCT-116) was 64.1 µM (inactive), the GI50 (HCT-15) was over 100 µM and the GI50 (BT-549) was 43.5 µM (inactive). For the same molecule, the GI50 (786-0) was > 100 µM (inactive), the GI50 (MDA-MB-435) was 72.8 µM (inactive) and the GI50 (SK-OV-3) was > 100 µM (inactive). For the same molecule, the GI50 (K562) was 31.1 µM (inactive), the GI50 (MDA-MB-231) was 43.3 µM (inactive) and the GI50 (OVCAR-4) was > 100 µM (inactive). The GI50 (SN12C) was > 100 µM (inactive), the GI50 (SNB-75) was 61.2 µM (inactive) and the GI50 (Hs-578T) was 35 µM (inactive). The GI50 (MOLT-4) was 39.4 µM (inactive), the GI50 (NCI-H23) was 78.2 µM (inactive) and the GI50 (ACHN) was > 100 µM (inactive). The GI50 (OVCAR-3) was 44.2 µM (inactive), the GI50 (SF-268) was 88.1 µM (inactive) and the GI50 (EKVX) was > 100 µM (inactive). The GI50 (SF-539) was > 100 µM (inactive), the GI50 (SK-MEL-2) was > 100 µM (inactive) and the GI50 (KM12) was 78.3 µM (inactive). For the same molecule, the GI50 (UO-31) was 64.7 µM (inactive), the GI50 (NCI-H522) was 54.6 µM (inactive) and the GI50 (COLO 205) was 28.1 µM (inactive). For the same molecule, the GI50 (HL-60) was 20.1 µM (inactive), the GI50 (LOX IMVI) was 70.6 µM (inactive) and the GI50 (SR) was 34.4 µM (inactive). For the same molecule, the GI50 (IGROV-1) was > 100 µM (inactive), the GI50 (T47D) was 37.1 µM (inactive) and the GI50 (SK-MEL-5) was 30.3 µM (inactive). For the same molecule, the GI50 (TK-10) was 86.7 µM (inactive), the GI50 (UACC-257) was 47.1 µM (inactive) and the GI50 (OVCAR-8) was 65.2 µM (inactive). For the same molecule, the GI50 (RXF 393) was 35.1 µM (inactive), the GI50 (A549) was > 100 µM (inactive) and the GI50 (Malme-3M) was > 100 µM (inactive). The GI50 (U-251) was 59.6 µM (inactive), the GI50 (NCI-H460) was 46.6 µM (inactive) and the GI50 (NCI-H226) was > 100 µM (inactive). For the same molecule, the GI50 (SK-MEL-28) was > 100 µM (inactive), the GI50 (HOP-92) was 16.2 µM (inactive) and the GI50 (OVCAR-5) was > 100 µM (inactive). For the same molecule, the GI50 (RPMI-8226) was 27.7 µM (inactive), the GI50 (HCC 2998) was 51.1 µM (inactive) and the GI50 (CAKI-1) was > 100 µM (inactive). For the same molecule, the GI50 (PC-3) was 54.8 µM (inactive), the GI50 (HOP-62) was > 100 µM (inactive) and the GI50 (CCRF-CEM) was 31.8 µM (inactive). For the same molecule, the GI50 (M14) was > 100 µM (inactive), the GI50 (SW-620) was > 100 µM (inactive) and the GI50 (HT-29) was 32.4 µM (inactive). For the same molecule, the GI50 (SF-295) was > 100 µM (inactive), the GI50 (NCI/ADR-RES) was > 100 µM (inactive) and the GI50 (MCF7) was 43.3 µM (inactive). For the same molecule, the GI50 (MDA-N) was 83 µM (inactive).
